Measured values from patent US20170105920A1, “COSMETIC METHOD USING METAL PHTHALOCYANINE DERIVATIVE” (I'FORET CO., LTD., priority 2010, published 2017).

Assay: Effectiveness test on suppression of fading, one week at 50° C., visual evaluation
Format: physicochemical
Description: Each beauty essence was kept for one week at 50° C. and its stability was visually evaluated compared to the beauty essence immediately after preparation.
Expert testers judged the beauty essences tested on a scale of three as specified below: […]

Structure (SMILES)	Judgment of appearance (anti-fading) (anti-fading component 0.10% in recipe of Example 4 (0.01% iron phthalocyanine tetracarboxylic acid))	fading (in words) (component blended by 0.1%)	fading (in words) (component blended by 0.2%)	fading (in words) (component blended by 0.05%)
O=C([O-])CN(CCN(CC(=O)O)CC(=O)O)CC(=O)[O-].[Na+].[Na+] [EDTA-2Na, sodium EDTA-2]	Δ~X	Marked fading	some fading	–
O=P(O)(O)O[C@H]1[C@H](OP(=O)(O)O)[C@@H](OP(=O)(O)O)[C@H](OP(=O)(O)O)[C@@H](OP(=O)(O)O)[C@H]1OP(=O)(O)O [Phytic acid, phytic acid]	–	hardly any fading	–	hardly any fading
